Test results taken from article PMC10387993, “New pyrimidine-N-β-D-glucosides: synthesis, biological evaluation, and molecular docking investigations” (Turkish Journal of Chemistry, 2023).
≈ marks a conversion by molar mass, not a printed value.

Key:
Format in all cases: cell-based
[1] = tested on: E. faecalis VRE ATCC 19433; test: Microdilution MIC assay; conditions: Enterococcus faecalis; E. faecalis VRE ATCC 19433, 24 h at 35 °C
Method in brief: (§1)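 Read-out is visual: absence of turbidity after 24 h at 35 °C defines the MIC, the lowest such concentration in a microwell dilution series.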

[2] = tested on: E. coli ESBL ATCC 35218; test: Microdilution MIC assay; conditions: Escherichia coli, ATCC35218; E. coli ESBL ATCC 35218, 24 h at 35 °C
Method in brief: as §1

[3] = tested on: S. gordonii NCTC 7870; test: Microdilution MIC assay; conditions: Streptococcus gordonii, NCTC7870; S. gordonii NCTC 7870, 24 h at 35 °C
Method in brief: as §1

[4] = tested on: S. aureus MRSA ATCC 46300; test: Microdilution MIC assay; conditions: Staphylococcus aureus; S. aureus MRSA ATCC 46300, 24 h at 35 °C; read-out: MIC
Method in brief: as §1

[5] = tested on: E. coli ATCC 25922; test: Microdilution MIC assay; conditions: Escherichia coli, ATCC25922; E. coli ATCC 25922, 24 h at 35 °C
Method in brief: as §1

[6] = tested on: S. aureus ATCC 25923; test: Microdilution MIC assay; conditions: Staphylococcus aureus, ATCC25923, 24 h, S. aureus ATCC 25923, 24 h at 35 °C; read-out: MIC
Method in brief: as §1

[7] = LDH cytotoxic activity assay, HeLa; conditions: human, HeLa cells
Method in brief: (§2)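 Cells grown in DMEM or RPMI 1640 with 10% FBS were seeded at about 5 × 10^3 per well in triplicate. They were exposed to 25, 50, 75 and 100 μg/mL compound for 24 h at 37 °C, 5% CO2, and LDH release was measured by absorbance at 492–630 nm.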

[8] = LDH cytotoxic activity assay, C6; conditions: rat, C6 glioma cells; for cytotoxicity at 24 h, 25 μg/mL: C6, 25 μg/mL; for cytotoxicity at 24 h, 50 μg/mL: C6, 50 μg/mL; for cytotoxicity at 24 h, 75 μg/mL: C6, 75 μg/mL; for cytotoxicity at 24 h, 100 μg/mL: C6, 100 μg/mL
Method in brief: as §2

[9] = LDH cytotoxic activity assay, HT29; conditions: human, HT29 cells; for cytotoxicity at 24 h, 25 μg/mL: HT29, 25 μg/mL; for cytotoxicity at 24 h, 50 μg/mL: HT29, 50 μg/mL; for cytotoxicity at 24 h, 75 μg/mL: HT29, 75 μg/mL; for cytotoxicity at 24 h, 100 μg/mL: HT29, 100 μg/mL
Method in brief: as §2

[10] = tested on: MCF7; test: cells; conditions: Homo sapiens; for LC50 (concentration causing 50% net cell loss relative to time zero): MCF7, read-out: LC50; for GI50 / IC50 / IC (total growth inhibition): MCF7, MTT; for IC50: read-out: IC50; for IC (total growth inhibition): read-out: TGI
Method in brief: (§3)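 Seed ~1 × 10^4 cells/well; final 200 μL. Add MTT in phenol-red-free RPMI 1640, 4 h. Solubilise formazan in DMSO + Sorenson's buffer, 30 min RT. Read 560/690 nm. ≥3 repeats.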

[11] = tested on: A549; test: cells; conditions: Homo sapiens; for LC50 (concentration causing 50% net cell loss): A549, read-out: LC50; for GI50 / IC50 / IC (total growth inhibition): A549, MTT; for IC50: read-out: IC50; for IC (total growth inhibition): read-out: TGI
Method in brief: as §3

[12] = tested on: HT29; test: cells; conditions: Homo sapiens; for LC50 (concentration giving 50% net cell loss relative to time zero): HT-29, read-out: LC50; for GI50 / IC50 / IC (total growth inhibition): HT-29, HT29, MTT; for IC50: read-out: IC50; for IC (total growth inhibition): read-out: TGI
Method in brief: as §3

[13] = tested on: Hep3B; test: cells; conditions: Homo sapiens; for GI50 / IC50 / IC (total growth inhibition): MTT; for IC50: read-out: IC50; for IC (total growth inhibition): read-out: TGI; for LC50 (concentration causing 50% net cell loss relative to time zero): read-out: LC50
Method in brief: as §3

[14] = tested on: HeLa; test: cells; conditions: Homo sapiens; for GI50 / IC50 / IC (total growth inhibition): MTT; for IC50: read-out: IC50; for IC (total growth inhibition): read-out: TGI; for LC50 (concentration causing 50% net cell loss): read-out: LC50
Method in brief: as §3

[15] = tested on: C6 (Rat brain glioma); test: cells; conditions: Rattus norvegicus; for LC50 (concentration giving 50% net cell loss relative to time zero): read-out: LC50; for GI50 / IC50 / IC (total growth inhibition): C6, MTT; for IC50: read-out: IC50; for IC (total growth inhibition): read-out: TGI
Method in brief: as §3

[16] = tested on: normal FL cells; test: cells; conditions: FL normal cells, MTT; for IC50: read-out: IC50; for IC (total growth inhibition): read-out: TGI
Method in brief: as §3

[17] = in vitro; conditions: human, LC50
Method in brief: as §3

For `CC(=O)OC[C@H]1O[C@@H](Nc2nc(-c3cccnc3)cc(-c3cccc(C)c3)n2)[C@H](OC(C)=O)[C@@H](OC(C)=O)[C@@H]1OC(C)=O` [Compound 14, 2,3,4,6-tetra-O-acetyl-N-[4-(3-methylphenyl)-6-pyridin-3-ylpyrimidin-2-yl]-β-D-glucopyranosylamine], the MIC [1] was 1000 µg/mL (≈ 1690 µM), the MIC [2] was > 1000 µg/mL and the MIC [3] was > 1000 µg/mL. The MIC [4] was 250 µg/mL (≈ 422 µM), the MIC [5] was > 1000 µg/mL and the MIC [6] was 500 µg/mL (≈ 844 µM). For the same compound, the cytotoxicity at 24 h, 25 μg/mL [7] was 16.6%, the cytotoxicity at 24 h, 50 μg/mL [7] was 28.8% and the cytotoxicity at 24 h, 75 μg/mL [7] was 33.5%. The cytotoxicity at 24 h, 100 μg/mL [7] was 48.8%, the cytotoxicity at 24 h, 25 μg/mL [8] was 18.4% and the cytotoxicity at 24 h, 50 μg/mL [8] was 35.3%. It also gave a cytotoxicity at 24 h, 75 μg/mL [8] of 70.2%, a cytotoxicity at 24 h, 100 μg/mL [8] of 86.7% and a cytotoxicity at 24 h, 25 μg/mL [9] of 21%. For the same compound, the cytotoxicity at 24 h, 50 μg/mL [9] was 44.6%, the cytotoxicity at 24 h, 75 μg/mL [9] was 61.8% and the cytotoxicity at 24 h, 100 μg/mL [9] was 72.2%. The LC50 (concentration causing 50% net cell loss relative to time zero) [10] was > 500 µg/mL, the GI50 [10] was 1.95 µg/mL (≈ 3.29 µM) and the IC50 [10] was > 500 µg/mL. For the same compound, the IC (total growth inhibition) [10] was > 500 µg/mL, the LC50 (concentration causing 50% net cell loss) [11] was > 500 µg/mL and the GI50 [11] was 430 µg/mL (≈ 726 µM). The IC50 [11] was > 500 µg/mL, the IC (total growth inhibition) [11] was > 500 µg/mL and the LC50 (concentration giving 50% net cell loss relative to time zero) [12] was > 500 µg/mL. The GI50 [12] was 2.28 µg/mL (≈ 3.85 µM), the IC50 [12] was > 500 µg/mL and the IC (total growth inhibition) [12] was > 500 µg/mL. For the same compound, the GI50 [13] was 4.9 µg/mL (≈ 8.27 µM), the IC50 [13] was > 500 µg/mL and the IC (total growth inhibition) [13] was > 500 µg/mL. The LC50 (concentration causing 50% net cell loss relative to time zero) [13] was > 500 µg/mL, the GI50 [14] was > 500 µg/mL and the IC50 [14] was > 500 µg/mL. For the same compound, the IC (total growth inhibition) [14] was > 500 µg/mL, the LC50 (concentration causing 50% net cell loss) [14] was > 500 µg/mL and the LC50 (concentration giving 50% net cell loss relative to time zero) [15] was > 500 µg/mL. For the same compound, the GI50 [15] was > 500 µg/mL, the IC50 [15] was > 500 µg/mL and the IC (total growth inhibition) [15] was > 500 µg/mL. For the same compound, the GI50 [16] was 118 µg/mL (≈ 199 µM), the IC50 [16] was > 500 µg/mL and the IC (total growth inhibition) [16] was > 500 µg/mL. For the same compound, the LC50 (concentration causing 50% net cell loss) [17] was > 500 µg/mL.

In the case of `Cc1ccccc1-c1cc(-c2ccncc2)nc(N[C@@H]2O[C@H](CO)[C@@H](O)[C@H](O)[C@H]2O)n1` [Compound 3, N-[4-(2-methylphenyl)-6-pyridin-4-ylpyrimidin-2-yl]-β-D-glucopyranosylamine], the MIC [1] is reported as > 1000 µg/mL, the MIC [2] is reported as > 1000 µg/mL and the MIC [3] is reported as 1000 µg/mL (≈ 2360 µM). The MIC [4] was 1000 µg/mL (≈ 2360 µM), the MIC [5] was > 1000 µg/mL and the MIC [6] was 500 µg/mL (≈ 1180 µM). It also gave a cytotoxicity at 24 h, 25 μg/mL [7] of 16.3%, a cytotoxicity at 24 h, 50 μg/mL [7] of 33.4% and a cytotoxicity at 24 h, 75 μg/mL [7] of 40.6%. The cytotoxicity at 24 h, 100 μg/mL [7] was 56.9%, the cytotoxicity at 24 h, 25 μg/mL [8] was 25.3% and the cytotoxicity at 24 h, 50 μg/mL [8] was 32.1%. It also gave a cytotoxicity at 24 h, 75 μg/mL [8] of 74%, a cytotoxicity at 24 h, 100 μg/mL [8] of 99.7% and a cytotoxicity at 24 h, 25 μg/mL [9] of 33.1%. For the same compound, the cytotoxicity at 24 h, 50 μg/mL [9] was 49.9%, the cytotoxicity at 24 h, 75 μg/mL [9] was 71.1% and the cytotoxicity at 24 h, 100 μg/mL [9] was 98.7%. For the same compound, the LC50 (concentration causing 50% net cell loss relative to time zero) [10] was > 500 µg/mL, the GI50 [10] was 2.23 µg/mL (≈ 5.25 µM) and the IC50 [10] was > 500 µg/mL. For the same compound, the IC (total growth inhibition) [10] was > 500 µg/mL, the LC50 (concentration causing 50% net cell loss) [11] was > 500 µg/mL and the GI50 [11] was 6.49 µg/mL (≈ 15.3 µM). For the same compound, the IC50 [11] was > 500 µg/mL, the IC (total growth inhibition) [11] was > 500 µg/mL and the LC50 (concentration giving 50% net cell loss relative to time zero) [12] was > 500 µg/mL. For the same compound, the GI50 [12] was 2.22 µg/mL (≈ 5.23 µM), the IC50 [12] was 78.4 µg/mL (≈ 185 µM) and the IC (total growth inhibition) [12] was 230 µg/mL. For the same compound, the GI50 [13] was 3.83 µg/mL (≈ 9.02 µM), the IC50 [13] was > 500 µg/mL and the IC (total growth inhibition) [13] was > 500 µg/mL. For the same compound, the LC50 (concentration causing 50% net cell loss relative to time zero) [13] was > 500 µg/mL, the GI50 [14] was > 500 µg/mL and the IC50 [14] was > 500 µg/mL. For the same compound, the IC (total growth inhibition) [14] was > 500 µg/mL, the LC50 (concentration causing 50% net cell loss) [14] was > 500 µg/mL and the LC50 (concentration giving 50% net cell loss relative to time zero) [15] was 252 µg/mL (≈ 594 µM). It also gave a GI50 [15] of 4.37 µg/mL (≈ 10.3 µM), an IC50 [15] of 33.5 µg/mL (≈ 78.9 µM) and an IC (total growth inhibition) [15] of 17.4 µg/mL. For the same compound, the GI50 [16] was 6.56 µg/mL (≈ 15.5 µM), the IC50 [16] was > 500 µg/mL and the IC (total growth inhibition) [16] was > 500 µg/mL. For the same compound, the LC50 (concentration causing 50% net cell loss) [17] was > 500 µg/mL.
